Data as given in publication doi:10.1101/2024.07.10.602890, “H105A peptide eye drops promote photoreceptor survival in murine and human models of retinal degeneration” (bioRxiv, 2024).
Ends that are not written are not given here.

System: rd10 and rd10/Serpinf1−/− mice
Assay: Electroretinography (ERG) a-wave and b-wave after peptide eye drops
Assay type: in vivo, mouse
Settings: for ERG a- and b-wave responses relative to vehicle-treated eyes: dark-adapted rd10 and rd10/Serpinf1−/− mice at P21, daily eye drops, n = 8
Description: Fig. 5: Effect of daily eyedrops of PEDF peptides on ERG a-wave and b-wave retinal function (A and B) Representative ERG waveforms for rd10 (A) and rd10/Serpinf1^−/− (B) mice at P21 in response to a light flash (1 cd.s/m^2). Amplitude (y-axis) is plotted against time in milliseconds (ms, x-axis). Treatments are indicated to the right of each plot and are color coded, with control wild type C57Bl/6J mice without peptide treatment shown in blue. A-wave and b-wave are indicated by arrows. (C and D) Photoreceptor a-wave amplitudes. Averages of photoreceptor a-wave amplitudes for rd10 (C) and rd10/Serpinf1^−/− (D) mice as a function of light intensity (cd/s.m^2, x-axis). Responses of animals treated with 17-mer are shown in green, H105A in black, and vehicle (HBSS) in red. Wildtype responses are shown in blue. (E and F) Bipolar cell b-wave amplitudes. Averages of bipolar cell b-wave amplitudes for rd10 (E) and rd10/Serpinf1^−/− (F) mice as a function of light intensity (cd/s.m^2, x-axis), with treatments indicated as in panels (C) and (D). The number of mice evaluated for the data shown in Panels C-F were n = 8 for each rd10, rd10/Serpinf1^−/− and wild type. Each data point represents the average ± SD of each genotype, analyzed by unpaired t-test. Statistical significance between H105A and vehicle is indicated by ##p < 0.01, ###p < 0.001, ####p < 0.0001, and between H105A and 17-mer by **p < 0.01, ***p < 0.001, ****p < 0.0001.
Electroretinogram (ERG) for rd10 and rd10/Serpinf1^−/− mice were recorded in both eyes of each animal using an Espion E2 system with ColorDome (Diagnosys LLC) with a heated surface and mice were dark-adapted overnight as previously described ([29]). Mice were placed on the heated surface and electrodes were placed in the mouth and a subdermal platinum needle electrode was placed in the back of the mouse to serve as ground. Responses were elicited with increasing light impulses with intensity from 0.0001 to 10 cd-seconds per meter squared (cd.s/m^2). Amplitudes for a-wave were measured from stimulus to the trough of the a-wave and b-wave amplitudes were measured from a-wave to b-wave trough or peak. The values from the a and b waves for both eyes were exported to Microsoft Excel to obtained amplitude values for each mouse.
Figure S2. Effects of extending the timeline or administering eye drops of 17-mer[H105A] peptide every other day in rd10 mic e.
Eye drops of H105A peptide solution were administered to r d1 0 mice either daily (Fig. S2A) or every other day (Fi g. S 2D). A total of 5 µl of a solution containing H105A peptide at 1 mg/ml in HBSS were applied as eye drops. The vehicle HBSS was added as eye drops in the contralateral eyes. When eye […]
intensity light at P25 (Fig. S2C). When eye drops of H105A were added every other day, a rescue in the ONL thickness in r d10 mice compared to vehicle was also observed (Fi g. S 2E), with an improvement in a- […]
efficacy of peptide H105A eye drops either daily or every other day in an extended timeline to stabilize photoreceptor morphology and light response function loss in r d10 mice, however, these were less efficacious than daily H105A peptide eye drops. […]
(C) ERG of r d1 0 mice at P25 and treated as in Fi g. […] For ERG data shown, the number of mice evaluated were n =5 for rd10 and each data point corresponds to the average ± SD of each genotype by unpaired t-test. *p < 0.05, **p < 0.01, * ** p < 0 .001 , ****p < 0.0001. […]

Sequence	ERG a- and b-wave responses relative to vehicle-treated eyes	ERG a-wave (rd10 mice, eye drops every other day P15 until P23, ERG at P25, n = 5)
QRTESIIHRALYYDLIS [17-mer]	protected visual function	–
QRTESIIARALYYDLIS [H105A]	protected visual function	improvement
